Test results as given in BindingDB's records for doi:10.1021/jm00084a013 (Upjohn Laboratories, 1992).

Assays:
[1] = target: 5-hydroxytryptamine receptor 1A (Bos taurus); experiment: Ability to displace [3H]-DPAT from 5-hydroxytryptamine 1A receptor in homogenates of bovine hippocampus.
[2] = Compound was evaluated for its ability to displace [3H]DPAT from 5-HT1A receptor in homogenates of bovine hippocampus

**Q.** With `CCCN(CCC)C1Cc2cccc3oc(=O)n(c23)C1` (stereo not given) as the molecule, how does the Ki [1] read?
**A.** > 1000 nM

**Q.** Which Ki [1] does the source give for `O=c1[nH]c2cccc3c2n1CC(NCC1CC1)C3` (stereo not given) here?
**A.** 84 nM

**Q.** Which Ki [1] does the source give for `CCCN(CCC)C1Cc2cccc3ncn(c23)C1` (stereo not given) here?
**A.** 827 nM

**Q.** With `CCCN(CCC)C1Cc2cccc3c2N(CCC3)C1` (stereo not given) as the molecule, how does the Ki [1] read?
**A.** 105 nM

**Q.** Which Ki [1] does the source give for `CCCN(CCC)C1Cc2cccc3c2N(C1)C(=O)C3` (stereo not given) here?
**A.** 108 nM

**Q.** Which Ki [1] does the source give for `CCCN(CCC)C1Cc2cccc3ccn(c23)C1` (stereo not given) here?
**A.** 252 nM

**Q.** For `O=c1[nH]c2cccc3c2n1CC(N(CC1CC1)CC1CC1)C3` (stereo not given), which Ki [1] is on record?
**A.** 95 nM

**Q.** For `CCCN(CCC)C1Cc2cccc3c2N(CC3)C1` (stereo not given), which Ki [1] is on record?
**A.** 13 nM

**Q.** For `CCCN(CCC)C1Cc2cccc3c2N(C1)C(=O)CN3` (stereo not given), which Ki [1] is on record?
**A.** 49 nM

**Q.** With `CCCN(CCC)C1Cc2cccc3nc(C)n(c23)C1` (stereo not given) as the molecule, how does the Ki [1] read?
**A.** 4490 nM

**Q.** With `CCCN(CCC)C1Cc2cccc3nc(SC)n(c23)C1` (stereo not given) as the molecule, how does the Ki [1] read?
**A.** 173 nM

**Q.** Which Ki [1] does the source give for `CCCN(CCC)C1Cc2cccc3[nH]c(=O)c(=O)n(c23)C1` (stereo not given) here?
**A.** > 1000 nM

**Q.** Which Ki [1] does the source give for `CCCN(CCC)C1Cc2cccc3c2N(C1)C(=O)CC3` (stereo not given) here?
**A.** 2.4 nM

**Q.** Which Ki [2] does the source give for `CCCN(CCC)C1Cc2cccc3c2n(c(=O)n3C)C1` (stereo not given) here?
**A.** 124 nM

**Q.** Which Ki [2] does the source give for `CCCCNC1Cc2cccc3[nH]c(=O)n(c23)C1` (stereo not given) here?
**A.** > 1000 nM
